Data published in patent US20210275657A1, “NEOANTIGENS AND USES THEREOF” (BioNTech US Inc., priority 2018, published 2021).
Values belong to the compound of their own block, whether it stands above or below them. Where no end group is shown, it is not given here.

Columns and labels:
indicated HLA alleles [1] = experiment: Stability of mutant EGFR neopeptides with the HLA alleles; type: binding, human
Experimental: (§1) Multiple peptides containing neoepitopes in the table below were either expressed or loaded onto antigen presenting cells. Mass spectrometry was then performed and the affinity of the neoepitopes for indicated HLA alleles were determined, and the stability of the neoepitopes with the HLA alleles were determined.

indicated HLA alleles [2] = experiment: Affinity of mutant EGFR neopeptides for indicated HLA alleles; type: binding, human
indicated HLA alleles [3] = target: indicated HLA alleles (Homo sapiens, UniProt P01889); experiment: Affinity of GATA3 neoORF neoepitopes for the indicated HLA alleles (Example 9, Table 4); type: binding
Experimental: (§2) Multiple peptides containing the neoepitopes in Table 4 below were expressed or loaded onto antigen presenting cells (APCs). Mass spectrometry was then performed and the affinity of the neoepitopes for the indicated HLA alleles and stability of the neoepitopes with the HLA alleles was determined.

indicated HLA alleles [4] = experiment: Stability of GATA3 neoORF neoepitopes with the HLA alleles (Example 9, Table 4); type: binding, human
Experimental: as §2

HLA-B08:01 [5] = target: T1, HLA-B08:01 (Homo sapiens, UniProt P01889, A93T/A95T/D138N/E176V/E187T/K202T/Q94N/R180D/S35A/V36M/Y33D/Y91F); experiment: biochemical
HLA-B08:01 [6] = target: T1, HLA-B08:01; experiment: Stability measurements, pMHC-I dissociation with 125I light chain (Example 20); type: binding; conditions: for Average half-life: average of experiments 1 and 2
Experimental: (§3) To measure the binding stability of peptides to Class I MHC, synthetic genes encoding biotinylated MHC-I heavy and light chains are expressed in E. coli and purified from inclusion bodies using standard methods. […] These reactions were carried out in streptavidin coated microplates to bind the biotinylated MHC-I heavy chains to the surface and allow measurement of radiolabeled light chain to monitor complex formation. Dissociation was initiated by addition of higher concentrations of unlabeled light-chain and incubation at 37° C. Stability was defined as the length of time in hours it takes for half of the complexes to dissociate, as measured by scintillation counts. Duplicate measurements were performed. The average of the two measurements was taken as the stability.

indicated HLA alleles [7] = experiment: Affinity of mutant BTK neopeptides for indicated HLA alleles; type: binding, human; conditions: BTK, C481S
Experimental: as §1

indicated HLA alleles [8] = target: T2, indicated HLA alleles (Homo sapiens, UniProt P04439); experiment: as above; type: binding
Experimental: as §1

indicated HLA alleles [9] = experiment: Stability of mutant BTK neopeptides with the HLA alleles; type: binding, human; conditions: BTK, C481S
Experimental: as §1

indicated HLA alleles [10] = target: T2, indicated HLA alleles; experiment: as above; type: binding; conditions: BTK, C481S; HLA A03.01
Experimental: as §1

HLA-B07:02 [11] = target: T3, HLA-B07:02 (Homo sapiens, UniProt P01889); experiment: Affinity measurements, competition with radiolabeled peptide (Example 20); type: binding
HLA-B07:02 [12] = target: T3, HLA-B07:02; experiment: Stability measurements, pMHC-I dissociation with 125I light chain (Example 20); type: binding
Experimental: as §3

HLA-A02:01 [13] = target: T4, HLA-A02:01 (Homo sapiens, UniProt P04439, D140Y/D185E/D98H/E176V/E277Q/G131W/G231S/I119V/I121R/I166T/I218V/L300P/L318F/N151K/N90K/P208A/P217A/Q86G/Q94H/R138H/R169H/T345S); experiment: Detection of GATA3 neoORF peptides by mass spectrometry (Example 8); type: cell-based; conditions: 293T cells transduced with GATA3 neoORF lentiviral vector, expressing HLA-A02:01; peptides eluted from HLA-peptide complexes, MS/MS
[14] = test system: antigen specific CD8+ T cells; experiment: Antigen specific CD8+ T cell induction monitored with pMHC multimers (Example 10); type: cell-based, human; conditions: healthy donor PBMCs, flow cytometry after stimulation or induction
Experimental: PBMC samples from a human donor were used to perform antigen specific T cell induction. CD8^+ T cell inductions were analyzed after manufacturing T cells. Cell samples can be taken out at different time points for analysis. pMIHC multimers were used to monitor the fraction of antigen specific CD8^+ T cells in the induction cultures. […] FIG. 9A depicts an exemplary result of a T cell response assay using PBMCs from 6 different healthy donors showing the fraction of antigen specific CD8^+ T cells that responded to […] peptide analyzed by flow cytometry after stimulation or induction. […] FIG. 9B depicts an exemplary result of a T cell response assay using PBMCs from a healthy donor showing fraction of antigen specific CD8^+ T cells that responded to […] peptide analyzed by flow cytometry after stimulation or induction.

CD8+ T cells = experiment: Immunogenicity on MHC I: FLT3L/mDC long term stimulation of healthy donor PBMCs, multimer readout (Example 23); conditions: A02:01
indicated HLA alleles [15] = experiment: Affinity of GATA3 neoORF neoepitopes for the indicated HLA alleles (Example 9, Table 4); type: binding, human; conditions: Allele A02.01; read-out: Observed MHC affinity
Experimental: as §2

HLA-A02:01 [16] = target: T4, HLA-A02:01; experiment: Stability measurements, pMHC-I dissociation with 125I light chain (Example 20); type: binding; conditions: for Average half-life: average of experiments 1 and 2
Experimental: as §3

Compound: CC[C@H](C)[C@H](NC(=O)[C@H](CC(C)C)NC(=O)[C@H](CCC(N)=O)NC(=O)[C@@H](NC(=O)[C@@H](NC(=O)[C@H](CO)NC(=O)[C@@H](NC(=O)[C@H](CC(C)C)NC(=O)[C@@H](N)CS)[C@@H](C)O)[C@@H](C)O)C(C)C)C(=O)N[C@@H](CCSC)C(=O)O
Stability (1/2 hr) (indicated HLA alleles [1]; EGFR T790M, HLA A01.01): 0 h
Stability (1/2 hr) (indicated HLA alleles [1]; EGFR_T790M, HLA A02.01): 0 h
Kd (indicated HLA alleles [2]; EGFR T790M, HLA A01.01): 8.28 µM
Kd (indicated HLA alleles [2]; EGFR_T790M, HLA A02.01): 0.537 µM

Compound: CC(C)C[C@H](NC(=O)[C@@H]1CCCN1C(=O)[C@H](CCC(N)=O)NC(=O)[C@H](CC(C)C)NC(=O)[C@H](C)NC(=O)[C@H](CC(C)C)NC(=O)[C@H](Cc1c[nH]cn1)NC(=O)[C@@H]1CCCN1C(=O)[C@@H](N)CCC(=O)O)C(=O)O
Kd (indicated HLA alleles [3]): 0.017 µM
Observed MHC stability (indicated HLA alleles [4]; Allele B07:02): 7.2 h
Observed MHC stability (indicated HLA alleles [4]; Allele B08:01): 0 h

Compound: CC[C@H](C)[C@H](NC(=O)[C@H](CCCCN)NC(=O)[C@H](CO)NC(=O)[C@H](CCC(=O)O)NC(=O)[C@H](C)NC(=O)[C@H](CCCCN)NC(=O)[C@H](CC(C)C)NC(=O)[C@@H](N)Cc1ccccc1)C(=O)N[C@@H](CCSC)C(=O)N[C@@H](Cc1ccccc1)C(=O)O
IC50 (HLA-B08:01 [5]): 0.09 µM
Observed MHC stability (indicated HLA alleles [4]; Allele B08:01): 0 h
Experiment 2 half-life (HLA-B08:01 [6]): 0 min
Average half-life (HLA-B08:01 [6]): 0 min

Compound: CC[C@H](C)[C@H](N)C(=O)N[C@@H](CCSC)C(=O)N[C@@H](CCCCN)C(=O)N1CCC[C@H]1C(=O)N[C@@H](CCCCN)C(=O)N[C@@H](CCCNC(=N)N)C(=O)N[C@@H](CC(=O)O)C(=O)NCC(=O)N[C@@H](Cc1ccc(O)cc1)C(=O)N[C@@H](CCSC)C(=O)O
IC50 (HLA-B08:01 [5]): 0.0402 µM
Observed MHC stability (indicated HLA alleles [4]; Allele B08:01): 0.4 h
Experiment 1 half-life (HLA-B08:01 [6]): 24 min
Experiment 2 half-life (HLA-B08:01 [6]): 24 min
Average half-life (HLA-B08:01 [6]): 24 min

Kd (indicated HLA alleles [2]; EGFR_T790M, HLA A02.01): 0.132 µM
Compound: CC[C@H](C)[C@H](NC(=O)[C@@H](N)CC(C)C)C(=O)N[C@@H](CCSC)C(=O)N[C@@H](CCC(N)=O)C(=O)N[C@@H](CC(C)C)C(=O)N[C@@H](CCSC)C(=O)N1CCC[C@H]1C(=O)N[C@@H](Cc1ccccc1)C(=O)NCC(=O)N[C@@H](CS)C(=O)O
Stability (1/2 hr) (indicated HLA alleles [1]; EGFR_T790M, HLA A02.01): 0.3813 h

Compound: CSCC[C@H](N)C(=O)N[C@@H](C)C(=O)N[C@@H](CC(N)=O)C(=O)NCC(=O)N[C@@H](CO)C(=O)N[C@@H](CC(C)C)C(=O)N[C@@H](CC(C)C)C(=O)N[C@@H](CC(N)=O)C(=O)N[C@@H](Cc1ccc(O)cc1)C(=O)O
Kd (indicated HLA alleles [7]; HLA A01.01): 0.439 µM
Kd (indicated HLA alleles [7]; HLA A11.01): 0.536 µM
Kd (indicated HLA alleles [8]): 0.0356 µM
Stability (1/2 hr) (indicated HLA alleles [9]; HLA A01.01): 0.2164 h
Stability (1/2 hr) (indicated HLA alleles [10]): 0.238 h

Compound: CSCC[C@H](N)C(=O)N[C@@H](Cc1ccccc1)C(=O)N[C@@H](C)C(=O)N[C@H](C(=O)N[C@@H](CC(C)C)C(=O)N[C@@H](CCC(N)=O)C(=O)N[C@@H](CCCNC(=N)N)C(=O)N[C@@H](CO)C(=O)N[C@@H](CO)C(=O)N[C@@H](CC(C)C)C(=O)O)[C@@H](C)O
IC50 (HLA-B07:02 [11]): 0.35 µM
Kd (indicated HLA alleles [3]): 0.267 µM
Observed MHC stability (indicated HLA alleles [4]; Allele B07:02): 0 h
Observed MHC stability (indicated HLA alleles [4]; Allele B08:01): 0 h
Experiment 2 half-life (HLA-B08:01 [6]): 0 min
Average half-life (HLA-B08:01 [6]): 0 min
Experiment 2 half-life (HLA-B07:02 [12]): 0.0 h
Average half-life (HLA-B07:02 [12]; average of experiments 1 and 2): 0.0 h

Compound: CSCC[C@H](NC(=O)[C@@H](N)CO)C(=O)N[C@@H](CC(C)C)C(=O)N[C@H](C(=O)NCC(=O)N1CCC[C@H]1C(=O)N1CCC[C@H]1C(=O)N[C@@H](C)C(=O)N[C@@H](CCCNC(=N)N)C(=O)N[C@H](C(=O)O)C(C)C)[C@@H](C)O
detected by mass spectrometry (HLA-A02:01 [13]): detected
fraction of antigen specific CD8+ T cells that responded to peptide [14]: increase in the fraction of antigen specific T cells
Percent positive inductions (CD8+ T cells; naive CD8+ induction confirmed over two stimulations): 20%
Number of wells with a reactive TCR (CD8+ T cells; of 5 wells tested, healthy donor PBMCs): 1
Kd (indicated HLA alleles [15]): 0.014 µM
Observed MHC stability (indicated HLA alleles [4]; Allele A02.01): 21.7 h
Experiment 1 half-life (HLA-A02:01 [16]): 1300 min
Experiment 2 half-life (HLA-A02:01 [16]): 1310 min
Average half-life (HLA-A02:01 [16]): 1300 min

Compound: CC[C@H](C)[C@H](NC(=O)[C@H](CCCCN)NC(=O)[C@H](CO)NC(=O)[C@H](CCC(=O)O)NC(=O)[C@H](C)NC(=O)[C@H](CCCCN)NC(=O)[C@H](CC(C)C)NC(=O)[C@H](Cc1ccccc1)NC(=O)[C@H](CCSC)NC(=O)[C@@H](N)Cc1ccc(O)cc1)C(=O)O
Observed MHC stability (indicated HLA alleles [4]; Allele A02.01): 0.6 h
Observed MHC stability (indicated HLA alleles [4]; Allele A24:02): 1.2 h
Observed MHC stability (indicated HLA alleles [4]; Allele B08:01): 0.4 h
Experiment 1 half-life (HLA-A02:01 [16]): 36 min
Experiment 2 half-life (HLA-A02:01 [16]): 36 min
Average half-life (HLA-A02:01 [16]): 36 min
Experiment 1 half-life (HLA-B08:01 [6]): 24 min
Experiment 2 half-life (HLA-B08:01 [6]): 30 min
Average half-life (HLA-B08:01 [6]): 24 min

Kd (indicated HLA alleles [15]): 0.008 µM
Compound: AIQPVLWTT
Observed MHC stability (indicated HLA alleles [4]; Allele A02.01): 1.5 h

Kd (indicated HLA alleles [15]): 0.604 µM
Compound: ALQPLQPHA
Observed MHC stability (indicated HLA alleles [4]; Allele A02.01): 1.5 h

Kd (indicated HLA alleles [7]; HLA A24.02): 0.00496 µM
Compound: EYMANGSLL
Stability (1/2 hr) (indicated HLA alleles [9]; HLA A24.02): 5.716 h
